Laboratory results published in ChEMBL document CHEMBL4715874, “In Vivo Screening of Xanthones from Garcinia oligantha Identified Oliganthin H as a Novel Natural Inhibitor of Convulsions” (J Nat Prod, 2020).

What was measured:
Danio rerio [1] = species on record: Danio rerio; assay: Anticonvulsant activity in AB zebra fish larvae assessed as PTZ-induced BDNF mRNA expression at 25 uM pretreated for 6 hrs followed by PTZ-stimulation and measured after 30 mins by qRT-PCR analysis (reference value: 11.41 +/- 1.09%); assay type: functional; conditions: time 6.5 hrs
Danio rerio [2] = species on record: Danio rerio; assay: Anticonvulsant activity in AB zebra fish larvae assessed as PTZ-induced pvalb5 mRNA expression at 25 uM pretreated for 6 hrs followed by PTZ-stimulation and measured after 30 mins by qRT-PCR analysis (reference value: 0.59 +/- 0.52%); assay type: functional; conditions: time 6.5 hrs
Danio rerio [3] = species on record: Danio rerio; assay: Anticonvulsant activity in AB zebra fish larvae assessed as PTZ-induced calb2 mRNA expression at 25 uM pretreated for 6 hrs followed by PTZ-stimulation and measured after 30 mins by qRT-PCR analysis (reference value: 0.88 +/- 0.39%); assay type: functional; conditions: time 6.5 hrs
Danio rerio [4] = species on record: Danio rerio; assay: Anticonvulsant activity in AB zebra fish larvae assessed as PTZ-induced PRKACB mRNA expression at 25 uM pretreated for 6 hrs followed by PTZ-stimulation and measured after 30 mins by qRT-PCR analysis (reference value: 1.49 +/- 0.69%); assay type: functional; conditions: time 6.5 hrs
[5] = Effect of npas4a mRNA expression in AB zebra fish larvae at 25 uM after 6 hrs by qRT-PCR analysis (reference value: 1.04 +/- 0.41%); assay type: ADME, Danio rerio; conditions: zebrafish
[6] = Effect of c-fos mRNA expression in AB zebra fish larvae at 25 uM after 6 hrs by qRT-PCR analysis (reference value: 1.06 +/- 0.52%); assay type: ADME, Danio rerio; conditions: zebrafish
[7] = Effect of PYYA mRNA expression in AB zebra fish larvae at 25 uM after 6 hrs by qRT-PCR analysis (reference value: 1 +/- 0.13%); assay type: ADME, Danio rerio; conditions: zebrafish
[8] = Effect of BDNF mRNA expression in AB zebra fish larvae at 25 uM after 6 hrs by qRT-PCR analysis (reference value: 1.01 +/- 0.21%); assay type: ADME, Danio rerio; conditions: zebrafish
[9] = Effect of pvalb5 mRNA expression in AB zebra fish larvae at 25 uM after 6 hrs by qRT-PCR analysis (reference value: 1 +/- 0.07%); assay type: ADME, Danio rerio; conditions: zebrafish
[10] = Effect of calb2 mRNA expression in AB zebra fish larvae at 25 uM after 6 hrs by qRT-PCR analysis (reference value: 1.02 +/- 0.33%); assay type: ADME, Danio rerio; conditions: zebrafish
[11] = Effect of PRKACAB mRNA expression in AB zebra fish larvae at 25 uM after 6 hrs by qRT-PCR analysis (reference value: 1 +/- 0.03%); assay type: ADME, Danio rerio; conditions: zebrafish
Danio rerio [12] = species on record: Danio rerio; assay: Anticonvulsant activity in AB zebra fish larvae assessed as PTZ-induced gabra1 mRNA expression at 25 uM pretreated for 6 hrs followed by PTZ-stimulation and measured after 30 mins by qRT-PCR analysis (reference value: 19.68 +/- 3.28%); assay type: functional; conditions: time 6.5 hrs
Danio rerio [13] = species on record: Danio rerio; assay: Anticonvulsant activity in AB zebra fish larvae assessed as PTZ-induced gad1 mRNA expression at 25 uM pretreated for 6 hrs followed by PTZ-stimulation and measured after 30 mins by qRT-PCR analysis (reference value: 5.45 +/- 1.77%); assay type: functional; conditions: time 6.5 hrs
Danio rerio [14] = species on record: Danio rerio; assay: Anticonvulsant activity in AB zebra fish larvae assessed as PTZ-induced GLSA mRNA expression at 25 uM pretreated for 6 hrs followed by PTZ-stimulation and measured after 30 mins by qRT-PCR analysis (reference value: 3.4 +/- 0.5%); assay type: functional; conditions: time 6.5 hrs
Danio rerio [15] = species on record: Danio rerio; assay: Anticonvulsant activity in AB zebra fish larvae assessed as PTZ-induced GLULA mRNA expression at 25 uM pretreated for 6 hrs followed by PTZ-stimulation and measured after 30 mins by qRT-PCR analysis (reference value: 5.44 +/- 0.55%); assay type: functional; conditions: time 6.5 hrs
Danio rerio [16] = species on record: Danio rerio; assay: Anticonvulsant activity in AB zebra fish larvae assessed as PTZ-induced glud1a mRNA expression at 25 uM pretreated for 6 hrs followed by PTZ-stimulation and measured after 30 mins by qRT-PCR analysis (reference value: 1.67 +/- 0.4%); assay type: functional; conditions: time 6.5 hrs
Danio rerio [17] = species on record: Danio rerio; assay: Anticonvulsant activity in AB zebra fish larvae assessed as PTZ-induced ABAT mRNA expression at 25 uM pretreated for 6 hrs followed by PTZ-stimulation and measured after 30 mins by qRT-PCR analysis (reference value: 2.16 +/- 1.2%); assay type: functional; conditions: time 6.5 hrs
Danio rerio [18] = species on record: Danio rerio; assay: Anticonvulsant activity in AB zebra fish larvae assessed as PTZ-induced gat1 mRNA expression at 25 uM pretreated for 6 hrs followed by PTZ-stimulation and measured after 30 mins by qRT-PCR analysis (reference value: 1.63 +/- 0.28%); assay type: functional; conditions: time 6.5 hrs
[19] = Effect of gabra1 mRNA expression in AB zebra fish larvae at 25 uM after 6 hrs by qRT-PCR analysis (reference value: 1 +/- 0.11%); assay type: ADME, Danio rerio; conditions: zebrafish
[20] = Effect of gad1 mRNA expression in AB zebra fish larvae at 25 uM after 6 hrs by qRT-PCR analysis (reference value: 1 +/- 0.11%); assay type: ADME, Danio rerio; conditions: zebrafish
[21] = Effect of GLSA mRNA expression in AB zebra fish larvae at 25 uM after 6 hrs by qRT-PCR analysis (reference value: 1 +/- 0.18%); assay type: ADME, Danio rerio; conditions: zebrafish
[22] = Effect of GLULA mRNA expression in AB zebra fish larvae at 25 uM after 6 hrs by qRT-PCR analysis (reference value: 1.02 +/- 0.29%); assay type: ADME, Danio rerio; conditions: zebrafish
[23] = Effect of glud1a mRNA expression in AB zebra fish larvae at 25 uM after 6 hrs by qRT-PCR analysis (reference value: 1 +/- 0.16%); assay type: ADME, Danio rerio; conditions: zebrafish
[24] = Effect of ABAT mRNA expression in AB zebra fish larvae at 25 uM after 6 hrs by qRT-PCR analysis (reference value: 1 +/- 0.11%); assay type: ADME, Danio rerio; conditions: zebrafish
[25] = Effect of gat1 mRNA expression in AB zebra fish larvae at 25 uM after 6 hrs by qRT-PCR analysis (reference value: 1.03 +/- 0.38%); assay type: ADME, Danio rerio; conditions: zebrafish

**Q.** With `CC(C)=CCC/C(C)=C/C[C@@]1(CC=C(C)C)C(=O)C(O)=C(O)c2oc3c4c(cc(O)c3c(=O)c21)OC(C)(C)C=C4` as the molecule, how does the Activity (Danio rerio [1]) read?
**A.** 1.32%

**Q.** And the Activity (Danio rerio [2])?
**A.** 0.85%

**Q.** And the Activity (Danio rerio [3])?
**A.** 0.97%

**Q.** What about the Activity (Danio rerio [4]) of the same molecule?
**A.** 1.21%

**Q.** What about the Activity [5] of the same molecule?
**A.** 1.95%

**Q.** What about the Activity [6] of the same molecule?
**A.** 1.67%

**Q.** What about the Activity [7] of the same molecule?
**A.** 2.27%

**Q.** What about the Activity [8] of the same molecule?
**A.** 1.14%

**Q.** What about the Activity [9] of the same molecule?
**A.** 0.86%

**Q.** What about the Activity [10] of the same molecule?
**A.** 0.86%

**Q.** What about the Activity [11] of the same molecule?
**A.** 0.9%

**Q.** And the Activity (Danio rerio [12])?
**A.** 1.34%

**Q.** What about the Activity (Danio rerio [13]) of the same molecule?
**A.** 1.08%

**Q.** And the Activity (Danio rerio [14])?
**A.** 0.92%

**Q.** And the Activity (Danio rerio [15])?
**A.** 1.61%

**Q.** What about the Activity (Danio rerio [16]) of the same molecule?
**A.** 1.24%

**Q.** And the Activity (Danio rerio [17])?
**A.** 0.53%

**Q.** And the Activity (Danio rerio [18])?
**A.** 1.13%

**Q.** What about the Activity [19] of the same molecule?
**A.** 1.77%

**Q.** What about the Activity [20] of the same molecule?
**A.** 1.31%

**Q.** What about the Activity [21] of the same molecule?
**A.** 0.78%

**Q.** What about the Activity [22] of the same molecule?
**A.** 0.76%

**Q.** What about the Activity [23] of the same molecule?
**A.** 1%

**Q.** What about the Activity [24] of the same molecule?
**A.** 0.7%

**Q.** And the Activity [25]?
**A.** 0.87%
